Inhibition and melting point data for 18 molecules are collected here from patent US8912338B2, “Pesticidal compositions” (Dow AgroSciences LLC, priority 2010, dated 2014).

Data set [1] deals with Cotton Aphid (Aphis gossypii). As to the kind of experiment: Insecticidal test for cotton aphid in a foliar spray assay. In kind it is in vivo. Conditions: 72 h, 200 ppm foliar spray on squash or cotton seedlings, live aphids counted after three days, Abbott's corrected % control, read-out: APHIGO % Ctrl @ 200 ppm. How it is done: Squash or cotton seedlings with fully expanded cotyledon leaves were trimmed to one cotyledon per plant and infested with wingless adult and nymph stage cotton aphid (APHIGO) one day prior to chemical application. Each plant was examined before chemical application to ensure uniform infestation (ca. 30-70 aphids per plant). Compounds (2 mg) were dissolved in 2 mL of acetone/methanol (1:1) solvent, forming stock solutions of 1000 ppm. The stock solutions were diluted 5× with 0.025% Tween 20 in H2O to obtain a solution at 200 ppm. A hand-held Devilbiss aspirator type sprayer was used to apply the spray solutions until runoff to both sides of the squash cotyledon leaves. Four plants (4 replications) were used for each concentration of each compound. Reference plants (solvent check) were sprayed with the diluent only. Treated plants were held in a holding room for three days at approximately 25° C. and 40% RH before the number of live cotton aphids on each plant was recorded. Insecticidal activity data presented in Table 3 were generated by using Abbott's correction formula: Corrected%Control=100*(X−Y)/X • where X=No. of live aphids on solvent check plants • Y=No. of live aphids on treated plants

For data set [2], the system named is Green Peach Aphid (Myzus persicae). As to the kind of experiment: Insecticidal test for green peach aphid in foliar spray assay. To be noted: 72 h, 200 ppm foliar spray on cabbage seedlings, live aphids counted after three days, Abbott's corrected % control, read-out: MYZUPE % Ctrl @ 200 ppm. In kind it is in vivo. The procedure: Certain molecules disclosed in this document were tested against MYZUPE using procedures described in the following example. In the reporting of the results, the “MYZUPE, APHIGO and BEMITA Rating Table” was used (See Table Section).
Cabbage seedlings grown in 3-inch pots, with 2-3 small (3-5 cm) true leaves, were used as test substrate. The seedlings were infested with 20-50 green peach aphids (wingless adult and nymph stage) one day prior to chemical application. Four pots with individual seedlings were used for each treatment. Compounds (2 mg) were dissolved in 2 mL of acetone/methanol (1:1) solvent, forming stock solutions of 1000 ppm. The stock solutions were diluted 5× with 0.025% Tween 20 in H2O to obtain the test solution at 200 ppm. A hand-held Devilbiss sprayer was used for spraying a solution to both sides of cabbage leaves until runoff. Reference plants (solvent check) were sprayed with the diluent only. Treated plants were held in a holding room for three days at approximately 25° C. and 40% relative humidity (RH) prior to grading. Evaluation was conducted by counting the number of live aphids per plant under a microscope. Insecticidal activity data presented in Table 3 were generated by using Abbott's correction formula: Corrected%Control=100*(X−Y)/X • where X=No. of live aphids on solvent check plants • Y=No. of live aphids on treated plants

As to `CS/C=C/C(=O)N(C)c1nnc(-c2cccnc2)s1` [Compound 21, (E)-N-methyl-3-(methylthio)-N-(5-(pyridin-3-yl)-1,3,4-thiadiazol-2-yl)acrylamide], the inhibition at 200 ppm is 0 to 80% in data set [1] and 80 to 100% in data set [2].

What is called melting point is the temperature, or range, at which the solid turns liquid. For the molecule `CN(C(=O)CCSC(c1ccccc1)(c1ccccc1)c1ccccc1)c1nnc(-c2cccnc2)s1` [Compound 22, N-methyl-N-(5-(pyridin-3-yl)-1,3,4-thiadiazol-2-yl)-3-(tritylthio)propanamide], the melting point was in the range of 60 to 75 °C. For the same molecule, the inhibition at 200 ppm in data set [1] was below 0%. For the same molecule, in data set [2], the inhibition at 200 ppm was in the range of 0 to 80%.

Take `CN(CCC(=O)N(C)c1nnc(-c2cccnc2)s1)C(=O)OCc1ccccc1` [Compound 31]: the inhibition at 200 ppm in data set [1] and in data set [2] was below 0% in each case.

`CN(C(=O)CCNC#N)c1nnc(-c2cccnc2)s1` [Compound 23, 3-(cyanoamino)-N-methyl-N-[5-(3-pyridyl)-1,3,4-thiadiazol-2-yl]propanamide] gave a melting point of 155 to 159 °C. The inhibition at 200 ppm in data set [1] lay in the range of 80 to 100%. Besides, the inhibition at 200 ppm in data set [2] lay in the range of 80 to 100%.

`CSCOC(=O)N(C)c1nnc(-c2cccnc2)s1` [Compound 54, methylthiomethyl methyl(5-(pyridin-3-yl)-1,3,4-thiadiazol-2-yl)carbamate]: the inhibition at 200 ppm in data set [1] was 0 to 80%; in data set [2] it was below 0%.

For the molecule `COC(=O)CCC(=O)N(C)c1nnc(-c2ccncc2)s1` [Compound 97], the melting point was 175 to 177 °C. Besides, the inhibition at 200 ppm in data set [1] fell in the range of 0 to 80%. Besides, the inhibition at 200 ppm in data set [2] was below 0%.

Regarding `CSCC(Cc1ccccc1)C(=O)N(C)c1nnc(-c2cccnc2)s1` (stereo not drawn) [Compound 57], the inhibition at 200 ppm in data set [1] and in data set [2] was 0 to 80% in each case.

For `CN(C(=O)CCSC(F)(F)F)c1nnc(-c2cccnc2)s1` [Compound 27, N-methyl-N-(5-(pyridin-3-yl)-1,3,4-thiadiazol-2-yl)-3-(trifluoromethylthio)propanamide], the figures for the inhibition at 200 ppm in data set [1] and in data set [2] were 80 to 100% and 0 to 80%, respectively.

In the case of `CSCCCN(C(C)=O)c1nnc(-c2cccnc2)s1` [Compound 47], the inhibition at 200 ppm was 0 to 80% in data set [1] and below 0% in data set [2].

The molecule `CN(C(=O)C(C)(C)CO[Si](C)(C)C(C)(C)C)c1nnc(-c2cncc(F)c2)s1` had a melting point of 102 to 105 °C.

In turn, `CSCCC(=O)N(C)c1nnc(-c2ccncc2)s1` [Compound 96] came in with a melting point of 152 to 154 °C. Besides, in data set [1], the inhibition at 200 ppm lay within 0 to 80%.

`CN(C(=O)CCS)c1nnc(-c2cccnc2)s1` [Compound 25, 3-mercapto-N-methyl-N-(5-(pyridin-3-yl)-1,3,4-thiadiazol-2-yl)propanamide]: the melting point fell in the range of 149 to 151 °C. The inhibition at 200 ppm in data set [1] is 80 to 100%. For the same molecule, in data set [2], the inhibition at 200 ppm was 80 to 100%.

Regarding `COCCOC(=O)N(C)c1nnc(-c2cccnc2)s1` [Compound 16], the inhibition at 200 ppm fell in the range of 80 to 100% in data set [1] and 0 to 80% in data set [2].

On to `CSCCC(=O)N(C)c1nnc(-c2cnccc2C(F)(F)F)s1` [Compound 60], for which the results for the inhibition at 200 ppm in data set [1] and in data set [2] were 0 to 80% and below 0%, respectively.

`CSCCC(=O)N(c1ccccc1)c1nnc(-c2cccnc2)s1` [Compound 58] returned a melting point of 117 to 120 °C. Moreover, the inhibition at 200 ppm in data set [1] is below 0%.

On to `CC(C)(CS(C)(=O)=O)C(=O)Nc1nnc(-c2cccnc2)s1` [Compound 36], for which the inhibition at 200 ppm in data set [1] is 80 to 100%; in data set [2], 0 to 80%.

As to `CN(C(=O)CCNC(=O)OCc1ccccc1)c1nnc(-c2cccnc2)s1` [Compound 30], the figures for the inhibition at 200 ppm in data set [1] and in data set [2] were 0 to 80% and below 0%, respectively.

For the molecule `CN(C(=O)CCSc1ccccc1)c1nnc(-c2cccnc2)s1` [Compound 10], the results for the inhibition at 200 ppm in data set [1] and in data set [2] were 0 to 80% and 80 to 100%, respectively.
